# Results: patent US20250034139A1, “AMINE COMPOUNDS HAVING ANTI-INFLAMMATORY, ANTIFUNGAL, ANTIPARASITIC, AND ANTICANCER ACTIVITY” (PHARMA CINQ, LLC, priority 2013, published 2025)
# Test system: PC-3 prostate cancer cells
# Assay: Example T: sensitisation of PC-3 cells to doxorubicin, oxaliplatin, paclitaxel or vincristine, Wst1
# Assay type: cell-based, human
# Settings: Homo sapiens; PC-3 cells; compound 2.5 μM alone; 72 hours; Wst1; vehicle = 100; read-out: No Chemo: percent cell survival
row,Compound,viability at 2.5 µM [%]
1,"CCOc1ccccc1OCCCNc1ccnc2ccccc12 [CS, N-[3-(2-Ethoxyphenoxy)propyl]quinolin-4-amine]",41.3
2,"COc1ccccc1OCCCNc1ccnc2ccccc12 [CT, N-[3-(2-Methoxyphenoxy)propyl]quinolin-4-amine]",34.5
3,"c1ccc(COc2ccccc2OCCCNc2ccnc3ccccc23)cc1 [CU, N-{3-[2-(Benyloxy)phenoxy]propyl}quinolin-4-amine]",37.6
4,"CCCCCCOc1ccccc1C(=O)NCCNc1ccnc2ccccc12 [EB, 2-(Hexyloxy)-N-[2-(quinolin-4-ylamino)ethyl]benzamide]",94.4
5,"CCCCCCOc1ccccc1C(=O)NCCCNc1ccnc2ccccc12 [EC, 2-(Hexyloxy)-N-[3-(quinolin-4-ylamino)propyl]benzamide]",94.6
6,"CCCCCCOCCCCCCCCn1cnc(-c2ccccc2)c1 [FR, 1-[8-(Hexyloxy)octyl]-4-phenyl-1H-imidazole]",101

# Same assay, conditions: Homo sapiens; PC-3 cells; compound 5 μM alone; 72 hours; Wst1; vehicle = 100; read-out: No Chemo: percent cell survival
row,Compound,viability at 5 µM [%]
1,"CCCCCCOCCCCCCCCn1ccc2ccccc21 [FW, 1-[8-(Hexyloxy)octyl]-1H-indole]",98.1

# Same assay, conditions: PC-3 cells; compound 2.5 μM + doxorubicin 3.5 μM; 72 hours; chemotherapy agent alone normalized to 100%
row,Compound,Doxorubicin 3.5 μM: percent cell survival [%]
1,"CCOc1ccccc1OCCCNc1ccnc2ccccc12 [CS, N-[3-(2-Ethoxyphenoxy)propyl]quinolin-4-amine]",79
2,"COc1ccccc1OCCCNc1ccnc2ccccc12 [CT, N-[3-(2-Methoxyphenoxy)propyl]quinolin-4-amine]",63.2
3,"c1ccc(COc2ccccc2OCCCNc2ccnc3ccccc23)cc1 [CU, N-{3-[2-(Benyloxy)phenoxy]propyl}quinolin-4-amine]",65
4,"CCCCCCOc1ccccc1C(=O)NCCNc1ccnc2ccccc12 [EB, 2-(Hexyloxy)-N-[2-(quinolin-4-ylamino)ethyl]benzamide]",93.4
5,"CCCCCCOc1ccccc1C(=O)NCCCNc1ccnc2ccccc12 [EC, 2-(Hexyloxy)-N-[3-(quinolin-4-ylamino)propyl]benzamide]",82.8
6,"CCCCCCOCCCCCCCCn1cnc(-c2ccccc2)c1 [FR, 1-[8-(Hexyloxy)octyl]-4-phenyl-1H-imidazole]",93.2

# Same assay, conditions: PC-3 cells; compound 2.5 μM + oxaliplatin 100 μM; 72 hours; chemotherapy agent alone normalized to 100%
row,Compound,Oxaliplatin 100 μM: percent cell survival [%]
1,"CCOc1ccccc1OCCCNc1ccnc2ccccc12 [CS, N-[3-(2-Ethoxyphenoxy)propyl]quinolin-4-amine]",84.2
2,"COc1ccccc1OCCCNc1ccnc2ccccc12 [CT, N-[3-(2-Methoxyphenoxy)propyl]quinolin-4-amine]",71.9
3,"c1ccc(COc2ccccc2OCCCNc2ccnc3ccccc23)cc1 [CU, N-{3-[2-(Benyloxy)phenoxy]propyl}quinolin-4-amine]",74.9
4,"CCCCCCOc1ccccc1C(=O)NCCNc1ccnc2ccccc12 [EB, 2-(Hexyloxy)-N-[2-(quinolin-4-ylamino)ethyl]benzamide]",98.8
5,"CCCCCCOc1ccccc1C(=O)NCCCNc1ccnc2ccccc12 [EC, 2-(Hexyloxy)-N-[3-(quinolin-4-ylamino)propyl]benzamide]",100.4
6,"CCCCCCOCCCCCCCCn1cnc(-c2ccccc2)c1 [FR, 1-[8-(Hexyloxy)octyl]-4-phenyl-1H-imidazole]",102.5

# Same assay, conditions: PC-3 cells; compound 2.5 μM + paclitaxel 50 μM; 72 hours; chemotherapy agent alone normalized to 100%
row,Compound,Paclitaxel 50 μM: percent cell survival [%]
1,"CCOc1ccccc1OCCCNc1ccnc2ccccc12 [CS, N-[3-(2-Ethoxyphenoxy)propyl]quinolin-4-amine]",69.7
2,"COc1ccccc1OCCCNc1ccnc2ccccc12 [CT, N-[3-(2-Methoxyphenoxy)propyl]quinolin-4-amine]",46.3
3,"c1ccc(COc2ccccc2OCCCNc2ccnc3ccccc23)cc1 [CU, N-{3-[2-(Benyloxy)phenoxy]propyl}quinolin-4-amine]",100.2
4,"CCCCCCOc1ccccc1C(=O)NCCNc1ccnc2ccccc12 [EB, 2-(Hexyloxy)-N-[2-(quinolin-4-ylamino)ethyl]benzamide]",143.3
5,"CCCCCCOc1ccccc1C(=O)NCCCNc1ccnc2ccccc12 [EC, 2-(Hexyloxy)-N-[3-(quinolin-4-ylamino)propyl]benzamide]",136.8
6,"CCCCCCOCCCCCCCCn1cnc(-c2ccccc2)c1 [FR, 1-[8-(Hexyloxy)octyl]-4-phenyl-1H-imidazole]",102.5

# Same assay, conditions: PC-3 cells; compound 2.5 μM + vincristine 100 nM; 72 hours; chemotherapy agent alone normalized to 100%
row,Compound,Vincristine 100 nM: percent cell survival [%]
1,"CCOc1ccccc1OCCCNc1ccnc2ccccc12 [CS, N-[3-(2-Ethoxyphenoxy)propyl]quinolin-4-amine]",82.8
2,"COc1ccccc1OCCCNc1ccnc2ccccc12 [CT, N-[3-(2-Methoxyphenoxy)propyl]quinolin-4-amine]",46.3
3,"c1ccc(COc2ccccc2OCCCNc2ccnc3ccccc23)cc1 [CU, N-{3-[2-(Benyloxy)phenoxy]propyl}quinolin-4-amine]",56.7
4,"CCCCCCOc1ccccc1C(=O)NCCNc1ccnc2ccccc12 [EB, 2-(Hexyloxy)-N-[2-(quinolin-4-ylamino)ethyl]benzamide]",98.2
5,"CCCCCCOc1ccccc1C(=O)NCCCNc1ccnc2ccccc12 [EC, 2-(Hexyloxy)-N-[3-(quinolin-4-ylamino)propyl]benzamide]",91.6
6,"CCCCCCOCCCCCCCCn1cnc(-c2ccccc2)c1 [FR, 1-[8-(Hexyloxy)octyl]-4-phenyl-1H-imidazole]",99.1

# Same assay, conditions: PC-3 cells; compound 5 μM + doxorubicin 3.5 μM; 72 hours; chemotherapy agent alone normalized to 100%
row,Compound,Doxorubicin 3.5 μM: percent cell survival [%]
1,"CCCCCCOCCCCCCCCn1ccc2ccccc21 [FW, 1-[8-(Hexyloxy)octyl]-1H-indole]",102.7

# Same assay, conditions: PC-3 cells; compound 5 μM + oxaliplatin 100 μM; 72 hours; chemotherapy agent alone normalized to 100%
row,Compound,Oxaliplatin 100 μM: percent cell survival [%]
1,"CCCCCCOCCCCCCCCn1ccc2ccccc21 [FW, 1-[8-(Hexyloxy)octyl]-1H-indole]",109.6

# Same assay, conditions: PC-3 cells; compound 5 μM + paclitaxel 50 μM; 72 hours; chemotherapy agent alone normalized to 100%
row,Compound,Paclitaxel 50 μM: percent cell survival [%]
1,"CCCCCCOCCCCCCCCn1ccc2ccccc21 [FW, 1-[8-(Hexyloxy)octyl]-1H-indole]",128.5

# Same assay, conditions: PC-3 cells; compound 5 μM + vincristine 100 nM; 72 hours; chemotherapy agent alone normalized to 100%
row,Compound,Vincristine 100 nM: percent cell survival [%]
1,"CCCCCCOCCCCCCCCn1ccc2ccccc21 [FW, 1-[8-(Hexyloxy)octyl]-1H-indole]",104.6

# Test system: THP-1 cells
# Assay: Example D: LPS-triggered THP-1 cell death assay, acute/5-hour and chronic/48-hour
# Assay type: cell-based, Human
# Settings: 10 ng/ml LPS, 0.1 μM test compound, 48 hours
# Description: Compounds of the invention were tested at 0.1 μM versus AC in the LPS-triggered THP-1 cell death assay. Both acute/5-hour and chronic/48-hour phases of cell death were assessed. Compounds were screened in batches with DMSO as the negative control and AC as the high activity control.
row,Compound,"Viable cell percent change, Chronic/48-hour, Mean [%]"
1,"CCOc1ccccc1OCCCNc1ccnc2ccccc12 [CS, N-[3-(2-Ethoxyphenoxy)propyl]quinolin-4-amine]",66.27
2,"COc1ccccc1OCCCNc1ccnc2ccccc12 [CT, N-[3-(2-Methoxyphenoxy)propyl]quinolin-4-amine]",34.36
3,"c1ccc(COc2ccccc2OCCCNc2ccnc3ccccc23)cc1 [CU, N-{3-[2-(Benyloxy)phenoxy]propyl}quinolin-4-amine]",41.84
4,"CCCCCCOc1ccccc1C(=O)NCCNc1ccnc2ccccc12 [EB, 2-(Hexyloxy)-N-[2-(quinolin-4-ylamino)ethyl]benzamide]",35.89
5,"CCCCCCOc1ccccc1C(=O)NCCCNc1ccnc2ccccc12 [EC, 2-(Hexyloxy)-N-[3-(quinolin-4-ylamino)propyl]benzamide]",47.40
6,"CCCCCCOCCCCCCCCn1cnc(-c2ccccc2)c1 [FR, 1-[8-(Hexyloxy)octyl]-4-phenyl-1H-imidazole]",15.96
7,"CCCCCCOCCCCCCCCn1ccc2ccccc21 [FW, 1-[8-(Hexyloxy)octyl]-1H-indole]",1.27

# Test system: PC3 human prostate cancer cells
# Assay: Example S: in vitro anticancer screen, PC-3 cells, Wst1
# Assay type: cell-based
# Settings: Homo sapiens, PC-3; 2.5 μM, approximately 20 hours, Wst1; read-out: PC-3, percent of cancer cell survival relative to vehicle treated cells
# Description: Activity against PC3 human prostate cancer cells in vitro was assessed by a similar method. PC-3 prostate cancer cells were plated at 2×10^4 cells/well in 96 well flat bottom tissue culture plates, and incubated for approximately 20 hours with vehicle or test compounds at concentrations of 0.4, 0.5 or 2.5 μM as indicated for specific compounds in the right-hand column of Table 37. A 1/10th volume of Wst1 dye was added/well and incubated for two hours in the cell culture incubator. Samples were analyzed in triplicate on an EL800 Universal Microplate Reader at 450 nm, reference wavelength 630 nm.
# Numerical values in the Table 37 represent percent of cancer cell survival relative to vehicle treated cells at the indicated concentrations, with values under 100 indicating anticancer cytotoxic activity at the drugs concentrations tested.
row,Compound,viability at 2.5 µM [%]
1,"CCOc1ccccc1OCCCNc1ccnc2ccccc12 [CS, N-[3-(2-Ethoxyphenoxy)propyl]quinolin-4-amine]",41.3
2,"COc1ccccc1OCCCNc1ccnc2ccccc12 [CT, N-[3-(2-Methoxyphenoxy)propyl]quinolin-4-amine]",34.5
3,"c1ccc(COc2ccccc2OCCCNc2ccnc3ccccc23)cc1 [CU, N-{3-[2-(Benyloxy)phenoxy]propyl}quinolin-4-amine]",37.6
4,"CCCCCCOc1ccccc1C(=O)NCCNc1ccnc2ccccc12 [EB, 2-(Hexyloxy)-N-[2-(quinolin-4-ylamino)ethyl]benzamide]",94.4
5,"CCCCCCOc1ccccc1C(=O)NCCCNc1ccnc2ccccc12 [EC, 2-(Hexyloxy)-N-[3-(quinolin-4-ylamino)propyl]benzamide]",94.6
6,"CCCCCCOCCCCCCCCn1cnc(-c2ccccc2)c1 [FR, 1-[8-(Hexyloxy)octyl]-4-phenyl-1H-imidazole]",101

# Same assay, conditions: Homo sapiens, PC-3; 5 μM, approximately 20 hours, Wst1; read-out: PC-3, percent of cancer cell survival relative to vehicle treated cells
row,Compound,viability at 5 µM [%]
1,"CCCCCCOCCCCCCCCn1ccc2ccccc21 [FW, 1-[8-(Hexyloxy)octyl]-1H-indole]",98.1
